{"source": "patent US20110003888A1", "about": "“HOPS EXTRACTION METHODS AND MIXTURES” (Bioactives, Inc., priority 2007, published 2011)", "key": {"Cyp1 A2": {"biological_target": "T1, Cyp1 A2 (Homo sapiens, UniProt P05177)", "T1 sequence (P05177 1-516)": "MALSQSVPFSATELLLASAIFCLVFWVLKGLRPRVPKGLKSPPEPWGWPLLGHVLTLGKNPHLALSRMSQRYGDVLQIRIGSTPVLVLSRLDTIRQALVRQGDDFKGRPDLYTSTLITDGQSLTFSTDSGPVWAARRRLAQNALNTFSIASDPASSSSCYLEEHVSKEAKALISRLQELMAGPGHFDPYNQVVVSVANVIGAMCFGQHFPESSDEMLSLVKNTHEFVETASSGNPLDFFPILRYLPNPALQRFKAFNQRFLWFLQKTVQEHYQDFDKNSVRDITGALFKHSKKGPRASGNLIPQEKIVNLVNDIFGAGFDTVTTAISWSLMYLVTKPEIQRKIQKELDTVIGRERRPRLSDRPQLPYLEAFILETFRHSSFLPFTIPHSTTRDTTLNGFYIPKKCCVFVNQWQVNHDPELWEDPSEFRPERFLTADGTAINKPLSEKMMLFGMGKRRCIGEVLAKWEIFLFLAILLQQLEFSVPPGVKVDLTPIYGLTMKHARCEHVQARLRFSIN", "conditions": "cDNA-expressed human Cyp1 A2; cited from earlier work"}, "[1]": {"test": "Permeability across Caco-2 cell monolayers", "type": "in vitro ADME", "conditions": "human", "description": "(§1) Percent Recovery=100×((Vr×Cr^final)+(Vd×Cd^final))/(Vd×C0) • Where: • dCr/dt is the slope of the cumulative concentration in the receiver compartment versus time in μM s^−1. • Vr is the volume of the receiver compartment in cm^3. • Vd is the volume of the donor compartment in cm^3. • A is the area of the cell-free insert (1.13 cm^2 for 12-well Transwell). • Cr^final is the cumulative receiver concentration in μM at the end of the incubation period. • Cd^final is the concentration of the donor in μM at the end of the incubation period. • C0 is the initial concentration of the dosing solution in μM.\n(§2) Each determination was performed in duplicate."}, "Caco-2 cell monolayers [2]": {"tested_on": "Caco-2 cell monolayers", "test": "Permeability across Caco-2 cell monolayers", "type": "in vitro ADME", "description": "as §1, §2"}, "[3]": {"test": "Permeability through cell-free (blank) microporous membrane filter, non-specific binding assessment", "type": "in vitro ADME", "conditions": "not told, pH 7.4, cell-free filter; for Papp A→B at 120 min, 2 μM: xanthohumol gel formulation at 2 μM xanthohumol; for recovery at 120 min, 2 μM: xanthohumol gel formulation at 2 μM", "description": "The permeability of the xanthohumol gel through a cell-free (blank) microporous 0.4 micron membrane filter was studied in order to determine the non-specific binding and cell-free diffusion Papp of the xanthohumol gel formulation. The xanthohumol gel formulation was assayed at a 2 μM xanthohumol concentration in Hanks buffer (Hanks Balanced Salt Solution (HBSSg) containing 10 mM HEPES and 15 mM glucose) at a pH of 7.4 in duplicate. Donor samples were collected at 120 minutes. Receiver samples were collected at 60 and 120 minutes. The apparent permeability coefficient, Papp, and percent recovery were calculated as follows:\nas §1"}, "inducible COX-2": {"tested_on": "inducible COX-2", "conditions": "read-out: IC50, inhibition of cyclooxygenase; cited from earlier work"}, "Cyp1 A1": {"biological_target": "T2, Cyp1 A1 (Homo sapiens, UniProt P04798)", "T2 sequence (P04798 1-512)": "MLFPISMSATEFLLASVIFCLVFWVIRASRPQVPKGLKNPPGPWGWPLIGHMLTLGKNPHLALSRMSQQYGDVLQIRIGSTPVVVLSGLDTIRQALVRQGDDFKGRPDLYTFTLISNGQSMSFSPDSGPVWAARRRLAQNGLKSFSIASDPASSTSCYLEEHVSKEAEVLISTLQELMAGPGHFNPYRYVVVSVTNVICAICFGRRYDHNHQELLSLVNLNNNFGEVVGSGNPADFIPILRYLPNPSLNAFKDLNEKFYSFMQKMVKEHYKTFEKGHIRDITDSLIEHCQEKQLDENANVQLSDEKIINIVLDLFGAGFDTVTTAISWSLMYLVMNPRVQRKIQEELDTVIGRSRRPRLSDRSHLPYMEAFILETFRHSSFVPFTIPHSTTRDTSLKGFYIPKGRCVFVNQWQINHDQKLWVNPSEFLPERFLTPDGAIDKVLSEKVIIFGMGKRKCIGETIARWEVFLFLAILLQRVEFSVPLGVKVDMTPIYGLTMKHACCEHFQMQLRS", "conditions": "cDNA-expressed human Cyp1 A1; cited from earlier work"}, "Cyp1B1": {"biological_target": "T3, Cyp1B1 (Homo sapiens, UniProt Q16678)", "T3 sequence (Q16678 1-543)": "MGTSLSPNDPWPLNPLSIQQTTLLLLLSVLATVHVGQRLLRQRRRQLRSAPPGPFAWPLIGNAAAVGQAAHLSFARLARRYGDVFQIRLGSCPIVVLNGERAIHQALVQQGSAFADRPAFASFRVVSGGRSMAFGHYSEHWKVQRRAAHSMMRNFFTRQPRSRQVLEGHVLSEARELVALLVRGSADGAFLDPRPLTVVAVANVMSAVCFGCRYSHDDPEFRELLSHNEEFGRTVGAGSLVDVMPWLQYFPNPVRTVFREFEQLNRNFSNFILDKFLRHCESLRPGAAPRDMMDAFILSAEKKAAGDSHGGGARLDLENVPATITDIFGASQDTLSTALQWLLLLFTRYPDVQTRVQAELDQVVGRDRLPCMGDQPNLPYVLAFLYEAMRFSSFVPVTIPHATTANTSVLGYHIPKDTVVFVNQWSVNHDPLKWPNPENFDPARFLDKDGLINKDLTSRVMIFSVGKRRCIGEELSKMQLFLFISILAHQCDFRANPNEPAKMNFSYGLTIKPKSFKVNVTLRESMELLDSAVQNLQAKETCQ", "conditions": "cDNA-expressed human Cyp1B1; cited from earlier work"}, "in vitro": {"test": "in vitro", "conditions": "human, Caco-2", "description": "(§3) To test the permeability of xanthohumol across Caco-2 cell monolayers, Caco-2 cell monolayers were grown to confluence on collagen-coated, microporous, polycarbonate membranes in 12-well Costar Transwell® plates. Details of the plates and their certification are shown below in Table 3. The test article was also the aqueous xanthohumol formulation, and the dosing concentration was 2 μM in the assay buffer (HBSSg) as in the previous example. Cell monolayers were dosed on the apical side (A-to-B) or basolateral side (B-to-A) and incubated at 37° C. with 5% CO2 in a humidified incubator. Samples were taken from the donor chamber at 120 minutes, and samples from the receiver chamber were collected at 60 and 120 minutes. Each determination was performed in duplicate. Lucifer yellow permeability was also measured for each monolayer after being subjected to the test article to ensure no damage was inflicted to the cell monolayers during the permeability experiment. All samples were assayed for Xanthohumol by LC/MS/MS using electrospray ionization. The apparent permeability (Papp), and percent recovery were calculated as described above."}, "endothelial cells": {"tested_on": "endothelial cells", "conditions": "in vitro model, endothelial cells invading collagen gel and forming capillary-like tubes; cited from earlier work"}, "Caco-2 cell monolayers [4]": {"tested_on": "Caco-2 cell monolayers", "test": "Caco-2 Transwell plate certification with control compounds", "conditions": "Caco-2 plate certification, TW12, passage 63, age 22 days", "description": "as §3"}}}
{"compound": "COc1cc(O)c(CC=C(C)C)c(O)c1C(=O)/C=C/c1ccc(O)cc1", "note": "[Xanthohumol, xanthohumol]", "values": [{"measurement": "Inhibition of cytochrome P450 enzyme", "setting": "Cyp1 A2", "result": "strongly inhibit"}, {"measurement": "efflux ratio at 120 min, 2 μM", "setting": "[1]; Caco-2, pH 7.4", "result": 2.1}, {"measurement": "Papp A→B at 120 min, 2 μM", "setting": "[1]; Caco-2, pH 7.4, Papp", "result": 0.84, "unit": "×10⁻⁶ cm/s"}, {"measurement": "Papp B→A at 120 min, 2 μM", "setting": "[1]; Caco-2, pH 7.4, Papp", "result": 1.36, "unit": "×10⁻⁶ cm/s"}, {"measurement": "Significant Efflux", "setting": "Caco-2 cell monolayers [2]; Caco-2", "result": "No"}, {"measurement": "Papp A→B at 120 min, 2 μM", "setting": "[3]; pH 7.4, Rep. 1", "result": 18.6, "unit": "×10⁻⁶ cm/s"}, {"measurement": "Papp A→B at 120 min, 2 μM", "setting": "[3]; pH 7.4, Rep. 2", "result": 17.1, "unit": "×10⁻⁶ cm/s"}, {"measurement": "Papp A→B at 120 min, 2 μM", "setting": "[3]; pH 7.4, average N = 2", "result": 17.9, "unit": "×10⁻⁶ cm/s"}, {"measurement": "recovery at 120 min, 2 μM", "setting": "[3]; Rep. 1", "result": 95, "unit": "%"}, {"measurement": "recovery at 120 min, 2 μM", "setting": "[3]; Rep. 2", "result": 99, "unit": "%"}, {"measurement": "recovery at 120 min, 2 μM", "setting": "[3]; average N = 2", "result": 97, "unit": "%"}, {"measurement": "IC50", "setting": "inducible COX-2", "result": 42, "unit": "µM"}, {"measurement": "Inhibition of cytochrome P450 enzyme", "setting": "Cyp1 A1", "result": "strongly inhibit"}, {"measurement": "Inhibition of cytochrome P450 enzyme", "setting": "Cyp1B1", "result": "strongly inhibit"}]}
{"compound": "C[C@H]1O[C@@H](O[C@H]2[C@@H](O)C[C@H](O[C@H]3[C@@H](O)C[C@H](O[C@H]4CC[C@@]5(C)[C@H](CC[C@@H]6[C@@H]5C[C@@H](O)[C@]5(C)[C@@H](C7=CC(=O)OC7)CC[C@]65O)C4)O[C@@H]3C)O[C@@H]2C)C[C@H](O)[C@@H]1O", "note": "[Digoxin]", "values": [{"measurement": "efflux ratio", "setting": "in vitro", "result": 16.6}]}
{"compound": "CC(C)=CCc1c(O)cc(O)c2c1O[C@H](c1ccc(O)cc1)CC2=O", "note": "[8-prenylnaringenin]", "values": [{"measurement": "Inhibition of cytochrome P450 enzyme", "setting": "Cyp1 A2", "result": "strongly inhibit"}, {"measurement": "Inhibition of cytochrome P450 enzyme", "setting": "Cyp1 A1", "result": "strongly inhibit"}, {"measurement": "Inhibition of cytochrome P450 enzyme", "setting": "Cyp1B1", "result": "strongly inhibit"}, {"measurement": "Effect on angiogenesis", "setting": "endothelial cells", "result": "inhibits angiogenesis"}]}
{"compound": "CC(C)NCC(O)COc1cccc2ccccc12", "note": "(stereo not shown) [Propranolol]", "values": [{"measurement": "Papp", "setting": "in vitro", "result": 20.6, "unit": "×10⁻⁶ cm/s"}]}
{"compound": "Lucifer Yellow [reference compound]", "values": [{"measurement": "Lucifer yellow Papp, post-experiment integrity control", "setting": "Caco-2 cell monolayers [2]; all monolayers after exposure to test article", "result": "< 0.8", "unit": "×10⁻⁶ cm/s"}, {"measurement": "Papp", "setting": "Caco-2 cell monolayers [4]", "result": 0.13, "unit": "×10⁻⁶ cm/s"}]}
{"compound": "COc1cc(O)c(CC=C(C)C)c2c1C(=O)CC(c1ccc(O)cc1)O2", "note": "(stereo not shown) [isoxanthohumol]", "values": [{"measurement": "Inhibition of cytochrome P450 enzyme", "setting": "Cyp1 A2", "result": "strongly inhibit"}, {"measurement": "Inhibition of cytochrome P450 enzyme", "setting": "Cyp1 A1", "result": "strongly inhibit"}, {"measurement": "Inhibition of cytochrome P450 enzyme", "setting": "Cyp1B1", "result": "strongly inhibit"}]}
